The values that follow come from ChEMBL document CHEMBL2380228, “Nucleotide competing reverse transcriptase inhibitors: discovery of a series of non-basic benzofurano[3,2-d]pyrimidin-2-one derived inhibitors” (Bioorg Med Chem Lett, 2013).

Data set [1] can be described thus: Inhibition of HIV-1 BH10 reverse transcriptase using poly(rA)/oligo(dT)15 as substrate after 60 mins by plate reader analysis. The arrangement: species or system Human immunodeficiency virus type 1 BH10.
Data set [2] can be described thus: Cytotoxicity against human C8166-LTR-Luc cells assessed as inhibition of cell viability at > 3.6 uM after 3 days by MTT assay. The class given is cell-based. The conditions noted are these: read-out: INH. In general terms: Tetrazolium assays rely on reduction of a dye to a coloured formazan, in cell work by metabolically active cells.
Data set [3] can be described thus: Permeability from apical to basolateral side of human Caco2 cells. It is filed as ADME, cell-based. The conditions noted are these: Caco-2, read-out: permeability. On the technique in general: Caco-2 monolayers are a common model of the intestinal barrier.
Data set [4] in a line: Cytotoxicity against human C8166-LTR-Luc cells after 3 days by MTT assay. It is filed as cell-based.
The test system of data set [5] is Human immunodeficiency virus 1. Kind of data set: Antiviral activity against wild type HIV1-infected human C8166 cells after 1.5 hrs by luciferase reporter gene assay. The class given is functional, organism-based. The conditions noted are these: Human immunodeficiency virus 1, C8166, 1.5 h. In general terms: A reporter such as luciferase makes a cellular process visible.

Data set [6] in a line: Clearance in human liver microsomes at 1 uM by LC-MS/MS analysis relative to hepatic blood flow. It is filed as ADME, Microsome. The conditions noted are these: read-out: CLH.
Data set [7] in a line: Solubility of the compound in phosphate buffer at pH 6.8 after 24 hrs at 25 degC by LC-MS analysis. It is filed as physicochemical.
Data set [8] is described as follows: Solubility of the compound in phosphate buffer at pH 2.0 after 24 hrs at 25 degC by LC-MS analysis. It is filed as physicochemical.
Data set [9] can be described thus: Lipophilicity, log D of the compound in n-octanol buffer at 0.5 mg after 2 to 24 hrs by LC-MS analysis. It is filed as physicochemical.
Data set [10] concerns Human immunodeficiency virus type 1 BH10. Kind of data set: Inhibition of HIV-1 BH10 reverse transcriptase using poly(rA)/oligo(dT)15 as substrate at > 365 nM after 60 mins by plate reader analysis.
A short description of data set [11]: Clearance in rat liver microsomes at 1 uM by LC-MS/MS analysis relative to hepatic blood flow. The class given is ADME, Microsome. The conditions noted are these: read-out: CLH.
Data set [12] deals with Human immunodeficiency virus type 1 BH10. Description: Inhibition of HIV-1 BH10 reverse transcriptase using poly(rA)/oligo(dT)15 as substrate at > 685 nM after 60 mins by plate reader analysis.
Data set [13] shares this test system. Description: Inhibition of HIV-1 BH10 reverse transcriptase using poly(rA)/oligo(dT)15 as substrate at > 4700 nM after 60 mins by plate reader analysis.
The test system is the same in data set [14]. Description: Inhibition of HIV-1 BH10 reverse transcriptase using poly(rA)/oligo(dT)15 as substrate at > 1100 nM after 60 mins by plate reader analysis.

Converted amounts (≈) assume the structure as drawn.

Regarding `CC(C)CCn1c(=O)nc(-c2ccccc2)c2oc3ccc(-c4ccc(CN(C)C)cc4)cc3c21`, in data set [1], the IC50 (usually the concentration that inhibits the measured activity by half) was 190 nM.
Take `COCCCn1c(=O)nc(-c2ccc(N3CCN(C4CC4)CC3)cc2)c2oc3ccc(Cl)cc3c21`: the cytotoxicity at 72 h in [2] worked out at 20%. For the same compound, the Papp A→B in [3] was found to be 8.9 ×10⁻⁶ cm/s. Further, the IC50 in [1] worked out at 13 nM. Moreover, the 50% cytotoxic concentration (CC50) (as a rule, the concentration giving 50% cytotoxicity) at 72 h in [4] was over 3600 nM. For the same compound, the EC50 (as a rule, the concentration giving half of the maximal effect) in [5] turned out to be 290 nM. Besides, the hepatic extraction ratio at 1 µM in [6] stood at 0.52.
As for `COCCCn1c(=O)nc(-c2ccccc2)c2oc3ccc(-c4ccc(CN(C)C)cc4)cc3c21`, the IC50 in data set [1] was found to be 39 nM.
For `CNc1ccc(-c2nc(=O)n(CCCOC)c3c2oc2ccc(-c4cnn(C)c4)cc23)cn1`, the solubility at 24 h in data set [7] and in data set [8] was over 1000 µg/mL each time. Further, the Papp A→B in data set [3] was 1.6 ×10⁻⁶ cm/s. In data set [1], the IC50 was found to be 4 nM. The cytotoxic concentration (CC50) at 72 h in data set [4] is over 17000 nM. This compound also displayed a concentration giving a half-maximal response (EC50) in data set [5] of 148 nM. Besides, the hepatic extraction ratio at 1 µM in data set [6] came out at 0.5.
In the case of `COCCCn1c(=O)nc(-c2ccc(N3CCN(C(C)C)CC3)cc2)c2oc3ccc(Cl)cc3c21`, the Papp A→B in data set [3] was 2.7 ×10⁻⁶ cm/s. Also, in data set [1], the IC50 amounted to 9.1 nM. In data set [4], this compound registered a CC50 at 72 h of 2300 nM. For the same compound, the EC50 in data set [5] worked out at 35 nM. The hepatic extraction ratio at 1 µM in data set [6] turned out to be 0.51.
With `CC(C)CCCn1c(=O)nc(-c2ccccc2)c2oc3ccc(-c4ccc(CN(C)C)cc4)cc3c21`, the concentration for half-maximal inhibition (IC50) in data set [1] was 55 nM.
Turning to `COC[C@@H](C)Cn1c(=O)nc(-c2ccccc2)c2oc3ccc(-c4ccc(CN(C)C)cc4)cc3c21`, the IC50 in data set [1] amounted to 635 nM.
For the compound `CCCCCn1c(=O)nc(-c2ccc(NC)nc2)c2oc3ccc(-c4cnn(C)c4)cc3c21`, the figures for the solubility at 24 h in data set [7] and in data set [8] were 0.27 µg/mL (≈ 0.61 µM) and over 1000 µg/mL, respectively. In addition, the pH-dependent lipophilicity (logD) – broadly, the decadic logarithm of the distribution of all forms, ionised or not, between an organic phase and buffer at a given pH – in [9] worked out at 4.7. Also, the Papp A→B in [3] came out at 9.8 ×10⁻⁶ cm/s. This compound displayed an IC50 in data set [1] of 2 nM. In data set [4], this compound yielded a CC50 at 72 h of 4000 nM. Also, in [5], it took 18 nM to reach a half-maximal effect (EC50). In addition, in data set [6], the hepatic extraction ratio at 1 µM stood at 0.81.
`CN(C)Cc1ccc(-c2ccc3oc4c(-c5ccccc5)nc(=O)n(CCCc5ccccc5)c4c3c2)cc1` showed an IC50 in data set [1] of over 365 nM. Also, in [10], the inhibition (in general, the drop in the measured response relative to a control, in per cent) came out at 25%.
Turning to `COCCCn1c(=O)nc(-c2ccc(N3CCNCC3)cc2)c2oc3ccc(Cl)cc3c21`, the Papp A→B in [3] is 0.3 ×10⁻⁶ cm/s. In [1], this compound displayed an IC50 of 1.7 nM. For the same compound, half-maximal cytotoxicity in data set [4] (CC50 at 72 h) was put at 2700 nM. In data set [5], the EC50 was found to be 25 nM. In addition, the hepatic extraction ratio at 1 µM in data set [6] turned out to be 0.28.
With `COCCCCn1c(=O)nc(-c2ccccc2)c2oc3ccc(-c4ccc(CN(C)C)cc4)cc3c21`, it took 86 nM to reach half-maximal inhibition in [1] (IC50).
Still for that read-out and setting: as for `CN(C)Cc1ccc(-c2ccc3oc4c(-c5ccccc5)nc(=O)n(-c5ccc([N+](=O)[O-])cc5)c4c3c2)cc1`, the figure is 1.7 nM; as for `CC(C)Cn1c(=O)nc(-c2ccccc2)c2oc3ccc(-c4ccc(CN(C)C)cc4)cc3c21`, 655 nM.
Compound `CCCCCn1c(=O)nc(-c2ccccc2)c2oc3ccc(-c4ccc(CN(C)C)cc4)cc3c21` registered a half-maximal inhibitory concentration (IC50) in data set [1] of 27 nM.
In [1], `CC(C)n1c(=O)nc(-c2ccccc2)c2oc3ccc(-c4ccc(CN(C)C)cc4)cc3c21` came in with an IC50 of 800 nM.
As to `COCCCn1c(=O)nc(-c2ccc(N3CCN(C(C)C)CC3)nc2)c2oc3ccc(Cl)cc3c21`, the Papp A→B in data set [3] stood at 2.6 ×10⁻⁶ cm/s. The IC50 in [1] is 3 nM. Moreover, the half-maximal cytotoxic concentration (CC50) at 72 h in [4] is over 3200 nM. The compound further displayed an EC50 in data set [5] of 37 nM. For the same compound, the hepatic extraction ratio at 1 µM in data set [6] came to 0.59.
Turning to `CCNCC(=O)Nc1ccc(-c2nc(=O)n(CCOC)c3c2oc2ccc(-c4ccc5c(c4)CCN(C)C5)cc23)cc1`, the hepatic extraction ratio at 1 µM in [11] was 0.11; in [6] it was 0.29. Moreover, the Papp A→B in data set [3] was under 0.1 ×10⁻⁶ cm/s. In addition, the IC50 in data set [1] was determined as 4 nM. In data set [4], this compound registered a CC50 at 72 h of 4100 nM. In addition, the EC50 in [5] turned out to be 30 nM.
Regarding `CCn1c(=O)nc(-c2ccccc2)c2oc3ccc(-c4ccc(CN(C)C)cc4)cc3c21`, in data set [1], the IC50 worked out at 890 nM.
For `CCCn1c(=O)nc(-c2ccccc2)c2oc3ccc(-c4ccc(CN(C)C)cc4)cc3c21`, the IC50 in data set [1] was over 685 nM. The compound further displayed an inhibition in data set [12] of 45%.
For the compound `CNc1ccc(-c2nc(=O)n(CC[C@H]3CCCO3)c3c2oc2ncc(-c4cnn(C)c4)cc23)cn1`, the solubility (usually how much of the substance goes into solution per volume) at 24 h in data set [7] is 1.2 µg/mL (≈ 2.54 µM); in data set [8], over 871 µg/mL.
For `CNc1ccc(-c2nc(=O)n(CC[C@@H]3CCCO3)c3c2oc2ncc(-c4cnn(C)c4)cc23)cn1`, in that order: over 928 µg/mL and over 844 µg/mL.
Compound `COCCn1c(=O)nc(-c2ccccc2)c2oc3ccc(-c4ccc(CN(C)C)cc4)cc3c21` yielded an IC50 in data set [1] of 2330 nM.
As for `COCCCn1c(=O)nc(-c2ccc(N3CCN(CCOC)CC3)nc2)c2oc3ccc(Cl)cc3c21`, in data set [3], the Papp A→B is 12 ×10⁻⁶ cm/s. In data set [1], the 50% inhibitory concentration (IC50) was determined as 8 nM. The compound also registered an EC50 in data set [5] of 56 nM. Also, in data set [6], the hepatic extraction ratio at 1 µM is 0.78.
`COC[C@H](C)Cn1c(=O)nc(-c2ccccc2)c2oc3ccc(-c4ccc(CN(C)C)cc4)cc3c21`: the IC50 in [1] amounted to 195 nM.
The same measure, in the same setting: to `CN(C)Cc1ccc(-c2ccc3oc4c(-c5ccccc5)nc(=O)n(C)c4c3c2)cc1` belongs 645 nM.
As to `CCNCC(=O)Nc1ccc(-c2nc(=O)n(CCCOC)c3c2oc2ccc(Cl)cc23)cc1`, in data set [3], the Papp A→B was under 0.1 ×10⁻⁶ cm/s. This compound returned an IC50 in [1] of 2.8 nM. Further, in data set [4], the CC50 at 72 h was over 8600 nM. The compound further displayed an EC50 in [5] of 33 nM. The hepatic extraction ratio at 1 µM in data set [6] was determined as 0.46.
`CN(C)Cc1ccc(-c2ccc3oc4c(-c5ccccc5)nc(=O)n(CCCC(=O)O)c4c3c2)cc1` yielded an inhibition in data set [13] of 46%. Also, in [1], the IC50 is over 4700 nM.
In the case of `CNc1ccc(-c2nc(=O)n(CCC3CCCO3)c3c2oc2ccc(-c4cnn(C)c4)cc23)cn1` (racemic), the figures for the solubility at 24 h in [7] and in data set [8] were over 984 µg/mL and over 1000 µg/mL, respectively. The logD in data set [9] was 3.4. Further, the Papp A→B in data set [3] was determined as 3.1 ×10⁻⁶ cm/s. Further, inhibition in data set [1] was half-maximal at 1.5 nM (IC50). In [4], this compound showed a CC50 at 72 h of 3800 nM. In data set [5], the EC50 is 13 nM. Also, the hepatic extraction ratio at 1 µM in data set [6] came out at 0.61.
The compound `Cc1ccc(-n2c(=O)nc(-c3ccccc3)c3oc4ccc(-c5ccc(CN(C)C)cc5)cc4c32)cc1C#N` came in with an IC50 in [1] of 7.3 nM.
Same read-out and setting: as for `CN(C)Cc1ccc(-c2ccc3oc4c(-c5ccccc5)nc(=O)n(-c5ccccc5)c4c3c2)cc1`, the figure is 245 nM.
On to `COCCCn1c(=O)nc(-c2ccc(N3CCN(C)CC3)nc2)c2oc3ccc(-c4cnn(C)c4)cc3c21`, for which the solubility at 24 h in data set [7] and in data set [8] was over 1000 µg/mL each time. Besides, the logD in data set [9] came out at 3. For the same compound, the Papp A→B in data set [3] stood at 0.4 ×10⁻⁶ cm/s. Also, the 50% inhibitory concentration (IC50) in data set [1] stood at 3 nM. This compound registered a CC50 at 72 h in data set [4] of over 21700 nM. Further, in [5], the EC50 was found to be 6 nM. For the same compound, the hepatic extraction ratio at 1 µM in data set [6] amounted to 0.67.
Regarding `CCCCn1c(=O)nc(-c2ccccc2)c2oc3ccc(-c4ccc(CN(C)C)cc4)cc3c21`, the 50% inhibitory concentration (IC50) in [1] worked out at 42 nM.
Regarding `COCCCn1c(=O)nc(-c2ccc(N3CCN(CCOC)CC3)cc2)c2oc3ccc(Cl)cc3c21`, in data set [3], the Papp A→B worked out at 8 ×10⁻⁶ cm/s. For the same compound, in [1], the concentration for half-maximal inhibition (IC50) worked out at 10 nM. The compound further registered a half-maximal cytotoxic concentration (CC50) at 72 h in data set [4] of over 4200 nM. The same compound displayed a half-maximal effective concentration (EC50) in [5] of 130 nM. For the same compound, the hepatic extraction ratio at 1 µM in [6] worked out at 0.61.
As for `CCOC(=O)CCCn1c(=O)nc(-c2ccccc2)c2oc3ccc(-c4ccc(CN(C)C)cc4)cc3c21`, in data set [1], the 50% inhibitory concentration (IC50) was over 1100 nM. Besides, the inhibition in [14] was found to be 14%.
